Assays:
[1] = Drug release from heat-molded glassy pellets in PBS, 1% FBS in PBS or 100% FBS at 37° C. (HPLC); type: physicochemical; conditions: heat-molded pellets in the glassy state, about 1 mm x 1 mm
Description: Heat-molded pellets from Compound 1 (˜1 mm×1 mm) were then placed in 20 mL glass vials and 2 mL of release buffer (either 100% phosphate buffered saline (PBS), 1% fetal bovine serum (FBS) in PBS, or 100% FBS) was added. Samples were incubated at 37° C. on a shaker rotating at 115 rpm. After 1 day, 3 days, 7 days, and subsequently in alternating 3 and 4 day intervals (i.e., 1, 3, 7, 10, 14 days etc.), release buffer was sampled directly (PBS) or syringe filtered, proteins were precipitated with acetonitrile, and drug release products were extracted. The samples were analyzed by high performance liquid chromatography (HPLC) to quantify drug products.

[2] = Drug release from crystalline powders suspended in PBS with 50% FBS, quantified by HPLC over time; type: physicochemical; conditions: crystalline powder suspended in PBS with 50% FBS, FIG. 12
Excerpt: FIG. 12 is a graph depicting the release of Compound 1 from crystalline powders suspended in phosphate buffered saline (PBS) with 50% fetal bovine serum (FBS). The release of Compound 1 from the different crystalline forms was quantified by HPLC over time as described in Example 10.
Form I/II (mixture) and Form IV of Compound 1 were formed from acetonitrile and ethanol respectively. The crystalline powders were suspended in phosphate buffered saline (PBS) with 50% fetal bovine serum (FBS) and drug release from the different forms was quantified by HPLC over time (see FIG. 12).

[3] = Solubility in 90% acetonitrile-10% water as a function of temperature; type: physicochemical; conditions: Form II vs Form IV, FIG. 15
Description: FIG. 15 is a graph depicting the difference in the solubilities (mg/mi) of Form II and Form IV in […] as a function of temperature.
The solubility of Form II and Form IV were measured in 90% acetonitrile-10% water as a function of temperature (see FIG. 15).

[4] = type: physicochemical; conditions: for thermodynamic stability of polymorph: solid form, comparison among observed polymorphs; for interconversion into other polymorphs: under the conditions tested
Excerpt: Thus, Form IV in solid form has the advantage of longer-term shelf life without interconversion into another crystalline form.

[5] = Solubility in organic solvents; type: physicochemical
Excerpt: This observation has implications for coating applications as making high concentration coating solutions (e.g., for coating a surface by dip coating or spray coating a solution of Compound 1 onto the surface) will be much more practical from Form II than from Form IV.

[6] = Differential scanning calorimetry (behaviour on heating); type: physicochemical; conditions: DSC, FIG. 14

SMILES	drug release from the crystalline form over time [2]	thermodynamic stability of polymorph [4]	interconversion into other polymorphs [4]	other results
C[C@@H]1C[C@H]2[C@@H]3CCC4=CC(=O)C=C[C@]4(C)[C@@]3(F)[C@@H](O)C[C@]2(C)[C@@]1(O)C(=O)COC(=O)OCCOCCOCCOC(=O)OCC(=O)[C@@]1(O)[C@H](C)C[C@H]2[C@@H]3CCC4=CC(=O)C=C[C@]4(C)[C@@]3(F)[C@@H](O)C[C@@]21C [Compound 1, dexamethasone-triethylene glycol-dexamethasone]	–	–	–	mechanism of drug release from pellet [1]: Release Drug Through Surface Erosion from an Intact Pellet
C[C@@H]1C[C@H]2[C@@H]3CCC4=CC(=O)C=C[C@]4(C)[C@@]3(F)[C@@H](O)C[C@]2(C)[C@@]1(O)C(=O)COC(=O)OCCOCCOCCOC(=O)OCC(=O)[C@@]1(O)[C@H](C)C[C@H]2[C@@H]3CCC4=CC(=O)C=C[C@]4(C)[C@@]3(F)[C@@H](O)C[C@@]21C [Form I/II]	faster release compared to Form IV	–	–	–
C[C@@H]1C[C@H]2[C@@H]3CCC4=CC(=O)C=C[C@]4(C)[C@@]3(F)[C@@H](O)C[C@]2(C)[C@@]1(O)C(=O)COC(=O)OCCOCCOCCOC(=O)OCC(=O)[C@@]1(O)[C@H](C)C[C@H]2[C@@H]3CCC4=CC(=O)C=C[C@]4(C)[C@@]3(F)[C@@H](O)C[C@@]21C [Form II]	–	high thermodynamic stability	not observed to convert to Form IV	solubility as a function of temperature [3]: higher solubility; solubility in organic solvents, comparison in words ([5]; Form II vs Form IV): much more soluble in organic solvents than Form IV
C[C@@H]1C[C@H]2[C@@H]3CCC4=CC(=O)C=C[C@]4(C)[C@@]3(F)[C@@H](O)C[C@]2(C)[C@@]1(O)C(=O)COC(=O)OCCOCCOCCOC(=O)OCC(=O)[C@@]1(O)[C@H](C)C[C@H]2[C@@H]3CCC4=CC(=O)C=C[C@]4(C)[C@@]3(F)[C@@H](O)C[C@@]21C [Form IV]	slower dissolution	most thermodynamically stable polymorph observed	not seen to convert into any other polymorphs	behaviour on heating (thermal stability) [6]: decomposes on heating; solubility in organic solvents relative to Form II ([5]; acetonitrile, ethanol, tetrahydrofuran, 2-methyl tetrahydrofuran, isobutyl acetate, acetone, butyl acetate, ethyl acetate, isopropyl acetate, methanol): ca. 10 fold
C[C@@H]1C[C@H]2[C@@H]3CCC4=CC(=O)C=C[C@]4(C)[C@@]3(F)[C@@H](O)C[C@]2(C)[C@@]1(O)C(=O)COC(=O)OCCOCCOCCOC(=O)OCC(=O)[C@@]1(O)[C@H](C)C[C@H]2[C@@H]3CCC4=CC(=O)C=C[C@]4(C)[C@@]3(F)[C@@H](O)C[C@@]21C [Form VIII]	–	–	–	conversion to another form by PXRD ([4]; after 14 days at room temperature and/or cooling at 0° C. for 14 days): conversion to Form IV

— patent US12473326B2, “Crystalline forms of dexamethasone dimers and uses thereof” (Ripple Therapeutics Corporation, priority 2019, dated 2025)
